Test results as given in US8557796B2, “Substituted 1-oxa-2,8-diaza-spiro [4,5] dec-2-ene derivatives and related treatment methods” (Gruenenthal GmbH, priority 2001, dated 2013).

Experiments:
5HT-uptake = target: T1, 5HT-uptake (Rattus norvegicus, UniProt P31652); experiment: Serotonin uptake inhibition (5HT uptake) in synaptosomes; type: biochemical; conditions: rat brain synaptosomes
T1 construct: synaptosomes from rat brain regions were freshly isolated; from tissue; host or cells: P2 synaptosome fraction from rat brain regions

NA transporter = target: T2, NA transporter (Rattus norvegicus, UniProt Q9WTR4); experiment: Noradrenalin uptake inhibition (NA-uptake) in synaptosomes; type: biochemical; conditions: rat hypothalamus synaptosomes
T2 construct: synaptosomes from rat brain regions were freshly isolated; from tissue; host or cells: P2 synaptosome fraction from hypothalamus of male rat brain
Text: Tests on Noradrenalin Uptake Inhibition (NA-Uptake Inhibition)
In order to be able to carry out these in vitro studies, synaptosomes from rat brain regions were freshly isolated.

T1 sequence (P31652 whole entry): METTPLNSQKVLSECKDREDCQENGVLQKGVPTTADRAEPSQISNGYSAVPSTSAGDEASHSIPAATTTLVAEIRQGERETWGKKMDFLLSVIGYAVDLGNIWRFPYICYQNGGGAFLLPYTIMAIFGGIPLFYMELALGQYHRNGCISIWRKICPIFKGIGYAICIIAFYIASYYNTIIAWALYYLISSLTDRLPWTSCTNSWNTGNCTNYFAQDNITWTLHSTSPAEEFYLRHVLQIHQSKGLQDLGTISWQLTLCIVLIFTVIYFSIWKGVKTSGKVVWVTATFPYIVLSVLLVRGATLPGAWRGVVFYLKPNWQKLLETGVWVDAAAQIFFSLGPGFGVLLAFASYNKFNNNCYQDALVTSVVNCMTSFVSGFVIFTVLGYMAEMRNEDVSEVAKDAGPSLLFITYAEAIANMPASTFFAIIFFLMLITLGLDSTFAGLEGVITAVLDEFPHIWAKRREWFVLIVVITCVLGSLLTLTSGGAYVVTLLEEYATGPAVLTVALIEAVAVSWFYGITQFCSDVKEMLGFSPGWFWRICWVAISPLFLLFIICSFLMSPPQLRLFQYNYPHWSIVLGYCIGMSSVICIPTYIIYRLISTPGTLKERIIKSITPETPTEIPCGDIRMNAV
T2 sequence (Q9WTR4 1-597): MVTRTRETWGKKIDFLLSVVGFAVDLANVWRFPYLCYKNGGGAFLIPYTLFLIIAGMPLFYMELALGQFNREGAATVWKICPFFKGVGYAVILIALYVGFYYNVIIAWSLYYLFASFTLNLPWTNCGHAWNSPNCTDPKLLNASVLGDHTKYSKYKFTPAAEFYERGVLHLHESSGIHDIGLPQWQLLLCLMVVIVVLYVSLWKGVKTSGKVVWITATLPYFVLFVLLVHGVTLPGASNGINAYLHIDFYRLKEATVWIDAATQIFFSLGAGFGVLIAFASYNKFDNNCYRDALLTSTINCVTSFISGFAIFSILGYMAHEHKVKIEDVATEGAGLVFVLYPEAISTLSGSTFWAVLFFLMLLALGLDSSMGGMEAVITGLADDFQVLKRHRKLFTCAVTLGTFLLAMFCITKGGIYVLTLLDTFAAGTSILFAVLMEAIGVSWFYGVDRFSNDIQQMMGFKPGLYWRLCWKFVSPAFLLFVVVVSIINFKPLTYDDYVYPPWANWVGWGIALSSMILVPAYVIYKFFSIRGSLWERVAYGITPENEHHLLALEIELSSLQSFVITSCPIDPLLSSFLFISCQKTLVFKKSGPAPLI

| inhibition at 10 µM (5HT-uptake) [%] | SMILES | also measured |
| --- | --- | --- |
|  | COC(=O)C(Cc1c[nH]c2ccccc12)NC(=O)C1=NOC2(CCN(S(=O)(=O)c3ccc(OC(F)(F)F)cc3)CC2)C1 (stereo not drawn) [Example 1, 3-(1H-indo1-3-yl)-2-{[8-(4-trifluoromethoxy-benzene-sulphonyl)-1-oxa-2,8-diaza-spiro[4,5]dec-2-ene-3-carbonyl]-amino}-propionic acid methyl ester] | 5HT-uptake, 10 μM, % inhibition (5HT-uptake): 47% |
|  | CCOP(=O)(Cc1ccc(NC(=O)C2=NOC3(CCN(S(=O)(=O)Cc4ccccc4)CC3)C2)cc1)OCC [Example 2] | 5HT-uptake, 10 μM, % inhibition (5HT-uptake): 55% |
|  | O=C(C1=NOC2(CCN(S(=O)(=O)Cc3ccccc3)CC2)C1)N1CCN(Cc2ccc3ccccc3c2)CC1 [Example 6, (4-naphthalen-2-ylmethyl-piperazin-l-yl)-(8-phenylmethane-sulphonyl-1-oxa-2,8 diaza-spiro[4,5]dec-2-en-3-yl)-methanone] | 5HT-uptake, 10 μM, % inhibition (5HT-uptake): 54% |
| 40 | CCN(CC)c1ccc(C(=O)NNC(=O)C2=NOC3(CCN(S(=O)(=O)c4cccs4)CC3)C2)cc1 [Example 10, 4-diethylamino-benzoic acid N′-[8-(thiophene-2-sulphonyl)-1-oxa-2,8-diaza-spiro[4,5]dec-2-ene-3-carbonyl]-hydrazide] |  |
|  | CN(CCc1c[nH]c2ccccc12)C(=O)C1=NOC2(CCN(S(=O)(=O)c3ccc(OC(F)(F)F)cc3)CC2)C1 [Example 16, 8-(4-trifluoromethoxy-benzenesulphonyl)-1-oxa-2,8-diaza-spiro[4,5]dec-2-ene-3 carboxylic acid [2-(1 H-indo1-3-yl)-ethyl]-methyl-amide] | 5HT-uptake, 10 μM, % inhibition (5HT-uptake): 60% |
| 46 | CC(=O)NCCNC(=O)C1=NOC2(CCN(S(=O)(=O)c3cc(F)ccc3C)CC2)C1 [Example 17, 8-(5-fluoro-2-methyl-benzenesulphonyl)-1-oxa-2,8-diaza-spiro[4,5]dec-2-ene-3 carboxylic acid (2-acetylamino-ethyl)-amide] |  |
| 51 | Cc1ccc(S(=O)(=O)N2CCC3(CC2)CC(C(=O)N2CCN(C(=O)Cc4ccccc4)CC2)=NO3)cc1 [Example 25, 2-phenyl-1-{4-[8-(toluene-4-sulphonyl)-1-oxa-2,8-diaza-spiro[4,5]dec-2-ene-3 carbonyl]-piperazin-1-yl)-ethanone] |  |
|  | O=C(C1=NOC2(CCN(S(=O)(=O)c3cc(Cl)ccc3Cl)CC2)C1)N1CCN(c2ncnc3sccc23)CC1 [Example 29] | 5HT-uptake, 10 μM, % inhibition (5HT-uptake): 42% |
|  | O=C(C1=NOC2(CCN(S(=O)(=O)c3cccc(C(F)(F)F)c3)CC2)C1)N1CCN(Cc2ccc3ccccc3c2)CC1 [Example 35, (4-naphthalen-2-ylmethyl-piperazin-l-yl)-[8-(3-trifluoromethyl-benzenesulphonyl)-1-oxa-2,8-diaza-spiro[4,5]dec-2-en-3-yl]-methanone] | 5HT-uptake, 10 μM, % inhibition (5HT-uptake): 44% |
| 65 | O=C(NCc1cc(F)cc(C(F)(F)F)c1)C1=NOC2(CCN(S(=O)(=O)c3cc(Cl)ccc3Cl)CC2)C1 [Example 39, 8-(2,5-dichloro-benzenesulphonyl)-1-oxa-2,8-diaza-spiro[4,5]dec-2-ene-3-carboxylic acid 3-fluoro-5-trifluoromethyl-benzylamide] |  |
| 70 | Cc1ccc(S(=O)(=O)NC(Cc2ccccc2)C(=O)N2CCC3(CC2)CC(C(=O)NCCC#N)=NO3)cc1 (stereo not drawn) [Example 41, 8-[3-phenyl-2-(toluene-4-sulphonylamino)-propionyl]-1-oxa-2,8-diaza-spiro[4,5]dec-2-ene-3-carboxylic acid (2-cyano-ethyl)-amide] |  |
| 41 | CN(C)c1cccc(C(=O)N2CCC3(CC2)CC(C(=O)NCCC#N)=NO3)c1 [Example 43, 8-(3-dimethylamino-benzoyl)-1-oxa-2,8-diaza-spiro[4,5]dec-2-ene-3-carboxylic acid (2-cyano-ethyl)-amide] |  |
| 40 | O=C(C1=NOC2(CCN(S(=O)(=O)Cc3ccccc3)CC2)C1)N1CCN(c2ccc(Cl)cc2)CC1 [Example 46, [4-(4-chloro-phenyl)-piperazin-1-yl]-(8-phenylmethane-sulphonyl-1-oxa-2,8-diaza-spiro[4,5]dec-2-en-3-yl)-methanone] |  |
| 50 | O=C(NCc1cc(F)ccc1F)C1=NOC2(CCN(S(=O)(=O)c3ccc(Cl)s3)CC2)C1 [Example 49, 8-(5-chloro-thiophene-2-sulphonyl)-1-oxa-2,8-diaza-spiro[4,5]dec-2-ene-3 carboxylic acid 2,5-difluoro-benzylamide] |  |
| 49 | CCOc1ccccc1CNC(=O)C1=NOC2(CCN(S(=O)(=O)Cc3ccccc3)CC2)C1 [Example 51, 8-phenylmethanesulphonyl-1-oxa-2,8-diaza-spiro[4,5]dec-2-ene-3-carboxylic acid 2-ethoxy-benzylamide] |  |
|  | C=CCOC(=O)C(CC(=O)OC(C)(C)C)NC(=O)C1=NOC2(CCN(S(=O)(=O)c3cc(Cl)ccc3Cl)CC2)C1 (stereo not drawn) [Example 53] | 5HT-uptake, 10 μM, % inhibition (5HT-uptake): 53% |
| 43 | O=C(Nc1ccc2ccccc2c1)C1=NOC2(CCN(S(=O)(=O)c3ccc(OC(F)(F)F)cc3)CC2)C1 [Example 54, 8-(4-trifluoromethoxy-benzenesulphonyl)-1-oxa-2,8-diaza-spiro[4,5]dec-2-ene-3-carboxylic acid naphthalen-2-ylamide] |  |
|  | O=C(NCc1ccccc1)C1=NOC2(CCN(S(=O)(=O)c3cccc(Cl)c3)CC2)C1 [Example 210, 8-(3-chloro-benzenesulphonyl)-1-oxa-2,8-diaza-spiro[4,5]dec-2-ene-3-carboxylic acid benzylamide] | inhibition at 10 µM (NA transporter): 42% |
|  | O=C(C1=NOC2(CCN(S(=O)(=O)c3cccc(C(F)(F)F)c3)CC2)C1)N1CCC(Cc2ccccc2)CC1 [Example 211, (4-benzyl-piperidin-l-yl)-[8-(3-trifluoromethyl-benzene-sulphonyl)-1-oxa-2,8-diaza-spiro[4,5]dec-2-en-3-yl]-methanone] | NA-uptake, 10 μM, % inhibition (NA transporter): 49% |
|  | O=C(NCc1ccccc1)C1=NOC2(CCN(C(=O)c3ccc(Br)cc3)CC2)C1 [Example 212, 8-(4-bromo-benzoyl)-1-oxa-2,8-diaza-spiro[4,5]dec-2-ene-3-carboxylic acid benzylamide] | inhibition at 10 µM (NA transporter): 55% |
|  | CC(NC(=O)C1=NOC2(CCN(S(=O)(=O)c3ccc(F)cc3)CC2)C1)c1ccc([N+](=O)[O-])cc1 (stereo not drawn) [Example 213, 8-(4-fluoro-benzenesulphonyl)-1-oxa-2,8-diaza-spiro[4,5]dec-2-ene-3-carboxylic acid [1-(4-nitro-phenyl)-ethyl]-amide] | inhibition at 10 µM (NA transporter): 46% |
|  | CC(C)CC(NC(=O)C1=NOC2(CCN(S(=O)(=O)c3cccc(C(F)(F)F)c3)CC2)C1)C(=O)OC(C)(C)C (stereo not drawn) [Example 214, 4-methyl-2-{[8-(3-trifluoromethyl-benzenesulphonyl)-1-oxa-2,8-diaza-spiro[4,5]dec-2-ene-3-carbonyl]-amino}-pentanoic acid tert-butyl ester] | inhibition at 10 µM (NA transporter): 45% |
|  | O=C(C1=NOC2(CCN(S(=O)(=O)Cc3ccccc3)CC2)C1)N1CC=C(c2ccc(F)cc2)CC1 [Example 215, [4-(4-fluoro-phenyl)-3,6-dihydro-2H-pyridin-1-yl]-(8-phenylmethanesulphonyl-1-oxa-2,8-diaza-spiro[4,5]dec-2-en-3-yl)-methanone] | inhibition at 10 µM (NA transporter): 42% |
|  | CCN(CCNC(=O)C1=NOC2(CCN(S(=O)(=O)N(C)C)CC2)C1)c1cccc(C)c1 [Example 216, 8-dimethylsulphamoyl-1-oxa-2,8-diaza-spiro[4,5]dec-2-ene-3-carboxylic acid [2-(ethyl-m-tolyl-amino)-ethyl]amide] | inhibition at 10 µM (NA transporter): 40% |
|  | Cc1cc(C(=O)N2CCC3(CC2)CC(C(=O)NCc2ccccc2)=NO3)c(C)o1 [Example 217, 8-(2,5-dimethyl-furan-3-carbonyl)-1-oxa-2,8-diaza-spiro[4,5]dec-2-ene-3-carboxylic acid benzylamide] | inhibition at 10 µM (NA transporter): 40% |
|  | O=C(C1=NOC2(CCN(S(=O)(=O)c3ccc(F)cc3)CC2)C1)N1CCN(C2CCCCCC2)CC1 [Example 218] | NA-uptake, 10 μM, % inhibition (NA transporter): 44% |

| SMILES | inhibition at 10 µM (5HT-uptake) [%] | also measured |
| --- | --- | --- |
| Cc1ccc([N+](=O)[O-])cc1S(=O)(=O)N1CCC2(CC1)CC(C(=O)NCCN(C)C)=NO2 [Example 19, 8-(2-methyl-5-nitro-benzenesulphonyl)-1-oxa-2,8-diaza-spiro[4,5]dec-2-ene-3 carboxylic acid (2-dimethylamino-ethyl)-amide] | 80 |  |
| O=C(NCc1cccc(F)c1)C1=NOC2(CCN(S(=O)(=O)c3cccs3)CC2)C1 [Example 24, 8-(thiophene-2-sulphonyl)-1-oxa-2,8-diaza-spiro[4,5]dec-2-ene-3-carboxylic acid 3-fluorobenzylamide] | 40 |  |
| O=C(NC1CCN(Cc2ccc(C(F)(F)F)cc2)C1)C1=NOC2(CCN(S(=O)(=O)c3cccs3)CC2)C1 (stereo not drawn) [Example 26, 8-(thiophene-2-sulphonyl)-1-oxa-2,8-diaza-spiro[4,5]dec-2-ene-3-carboxylic acid [1-(4-trifluoromethyl-benzyl)-pyrrolidin-3-yl]-amide] | 65 |  |
| Cc1ccc(S(=O)(=O)N2CCC3(CC2)CC(C(=O)N(CCC#N)Cc2ccccc2)=NO3)cc1 [Example 28, 8-(toluene-4-sulphonyl)-1-oxa-2,8-diaza-spiro[4,5]dec-2-ene-3-carboxylic acid benzyl-(2-cyano-ethyl)-amide] | 43 |  |
| O=C(NC(c1ccccc1)c1ccccc1)C1=NOC2(CCN(S(=O)(=O)c3ccc(Cl)s3)CC2)C1 [Example 40, 8-(5-chloro-thiophene-2-sulphonyl)-1-oxa-2,8-diaza-spiro[4,5]dec-2-ene-3 carboxylic acid benzhydryl-amide] | 45 |  |
| CC(=O)N1CCC2(CC1)CC(C(=O)NCc1ccccc1)=NO2 [Example 48, 8-acetyl-1-oxa-2,8-diaza-spiro[4,5]dec-2-ene-3-carboxylic acid benzylamide] | 41 |  |
| CCc1ccc(C(=O)N2CCC3(CC2)CC(C(=O)NCc2cccs2)=NO3)cc1 [Example 52, 8-(4-ethyl-benzoyl)-1-oxa-2,8-diaza-spiro[4,5]dec-2-ene-3-carboxylic acid (thiophen-2-ylmethyl)-amide] | 60 |  |
